In one data set the test system is humans. Nature of the data set: Case reports: ophthalmic drops instilled into the conjunctival sac for night vision and night blindness. Conditions: micro doses in the ophthalmic drops.
The conditions of data set [1]: cited from earlier work.
For the next data set, the system named is mice. Conditions: cited from earlier work.

The source of these data is patent US20120157377A1, “METHODS TO ENHANCE NIGHT VISION AND TREATMENT OF NIGHT BLINDNESS” (priority 2012, published 2012).

Take `CNC1(c2ccccc2Cl)CCCCC1=O` (stereo not shown) [ketamine]: in the data set with humans, the “hallucinogenic or other ill effect” value was “no hallucinogenic or other ill effect”.
As for `C=Cc1c(C)c2cc3nc(c(CC(=O)O)c4[nH]c(cc5nc(cc1[nH]2)C(C)=C5CC)c(C)c4C(=O)O)[C@@H](CCC(=O)O)[C@@H]3C` (relative stereo) [chlorin e6], the “red fluorescence (>640 nm) of eyes versus control mice” value in data set [1] (intravenously injected chlorin e6) is recorded as “three times more red fluorescence”. For the same compound, in data set [1] (mice, 2.00 mg per kilogram body weight intravenously, one hour after administration), the “fluorescence emission of removed eyes (uptake by the retina)” value was “strong emission band of red florescence centered at 675 nm”. The “persistence of deposits in the photoreceptors” value in data set [1] (mice, intravenous chlorin e6) is given as “remained in the photoreceptors for three hours post administration”. For the same compound, in the data set with mice (in the presence of chlorin e6), the “neural impulse generation in the retina in response to amber light” value is “not amber light”; the “neural impulse generation in the retina in response to red and blue light” value is given as “almost two-fold increase”. The “electroretinographic amplitudes in response to red and blue light” value in the data set on mice (mice administered chlorin e6) is “two-fold greater”.
